Laboratory results as given in patent US20240174675A1, “SMALL MOLECULE REGULATORS OF ALVEOLAR TYPE 2 CELL PROLIFERATION FOR THE TREATMENT OF PULMONARY DISEASES” (THE SCRIPPS RESEARCH INSTITUTE, priority 2021, published 2024).
Counter-ions that a name gives are not always drawn.

Target: T1, Human DPP4 (Homo sapiens, UniProt P27487)
T1 construct: purchased Sigma-Aldrich MAK088
Experiment: DPP4 activity assay (DPP4 Activity Assay Kit, fluorescent substrate)
Type: biochemical
Settings: Human DPP4; read-out: DPP4 inhibition IC50 [nM])
Procedure: DPP4 activity assay. Human DPP4 activity assay data were obtained using a DPP4 Activity Assay Kit (Sigma-Aldrich, MAK088) according to the manufacturer's instructions. Briefly, 10 μL of DPP4 Assay Buffer were transferred per well in low volume 384-well plates before transferring 10 μL of test compound dissolved in DPP4 assay buffer. To each well was added 5 μL of Master Reaction Mix containing a fluorescent substrate that becomes fluorescent upon cleavage by the enzyme. Fluorescence intensity measurements were recorded at 1-minute time intervals over the course of 20 minutes using an Envision Multimode Plate Reader (PerkinElmer).

T1 sequence (P27487 whole entry): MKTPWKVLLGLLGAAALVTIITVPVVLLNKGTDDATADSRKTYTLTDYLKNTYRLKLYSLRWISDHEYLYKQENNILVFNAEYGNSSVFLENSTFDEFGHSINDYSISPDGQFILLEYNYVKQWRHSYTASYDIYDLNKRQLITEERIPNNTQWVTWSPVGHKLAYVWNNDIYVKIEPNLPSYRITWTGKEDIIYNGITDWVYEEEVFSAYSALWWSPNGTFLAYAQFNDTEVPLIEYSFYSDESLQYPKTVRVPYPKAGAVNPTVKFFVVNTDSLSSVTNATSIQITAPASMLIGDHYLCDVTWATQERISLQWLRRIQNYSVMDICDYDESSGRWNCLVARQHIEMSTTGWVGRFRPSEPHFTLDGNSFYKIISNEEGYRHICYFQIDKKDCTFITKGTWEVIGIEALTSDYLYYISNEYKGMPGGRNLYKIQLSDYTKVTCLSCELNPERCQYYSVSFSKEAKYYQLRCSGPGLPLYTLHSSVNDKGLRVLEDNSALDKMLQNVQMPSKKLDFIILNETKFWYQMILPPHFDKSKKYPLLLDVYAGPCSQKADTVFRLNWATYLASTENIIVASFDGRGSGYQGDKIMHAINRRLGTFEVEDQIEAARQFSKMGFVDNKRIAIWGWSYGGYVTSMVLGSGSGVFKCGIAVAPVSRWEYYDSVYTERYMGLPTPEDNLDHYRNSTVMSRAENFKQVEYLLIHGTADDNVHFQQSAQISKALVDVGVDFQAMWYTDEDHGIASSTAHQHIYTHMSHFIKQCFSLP

SMILES | IC50 [nM]
CCCCCCCS(=O)C12CC3C[C@@H](CC(NCC(=O)N4CCC[C@H]4C#N)(C3)C1)C2 (stereo in doubt) [Compound 3, (2S)-1-(((1S,3R,5S)-3-(heptylsulfinyl)adamantan-1-yl)glycyl)pyrrolidine-2-carbonitrile] | 9
CCCCCCN(CCc1ccc(OCCNC(=O)OCCSC23CC4C[C@@H](CC(NCC(=O)N5CCC[C@H]5C#N)(C4)C2)C3)cc1)C[C@H](O)[C@@H](O)[C@H](O)[C@H](O)CO (stereo in doubt) [Compound 4, 2-(((1R,3S,5S)-3-((2-((S)-2-cyanopyrrolidin-1-yl)-2-oxoethyl)amino)adamantan-1-yl)thio)ethyl (2-(4-(2-(hexyl((2S,3R,4R,5R)-2,3,4,5,6-pentahydroxyhexyl)amino)ethyl)phenoxy)ethyl)carbamate] | 11
N#C[C@@H]1CCCN1C(=O)CN[C@]12CC3CC(C1)C[C@@](OCCO)(C3)C2 (stereo in doubt) [Compound 5, (2S)-1-(((1S,3R,5S)-3-(2-hydroxyethoxy)adamantan-1-yl)glycyl)pyrrolidine-2-carbonitrile] | 2.3
CCCCCCCOC12CC3C[C@@H](CC(NCC(=O)N4CCC[C@H]4C#N)(C3)C1)C2 (stereo in doubt) [Compound 6] | 31
N#C[C@@H]1CCCN1C(=O)CN[C@]12CC3CC(C1)C[C@@](OCCOCCNC[C@H](O)[C@@H](O)[C@H](O)[C@H](O)CO)(C3)C2 (stereo in doubt) [Compound 11, (2S)-1-(((1S,3R,5S)-3-(2-(2-(((2S,3R,4R,5R)-2,3,4,5,6-pentahydroxyhexyl)amino)ethoxy)ethoxy)adamantan-1-yl)glycyl)pyrrolidine-2-carbonitrile] | 31.6
CCCCCCN(CCc1ccc(OCCNC(=O)OCCOC23CC4C[C@@H](CC(NCC(=O)N5CCC[C@H]5C#N)(C4)C2)C3)cc1)C[C@H](O)[C@@H](O)[C@H](O)[C@H](O)CO (stereo in doubt) [Compound 13, 2-(((1R,3S,5S)-3-((2-((S)-2-cyanopyrrolidin-1-yl)-2-oxoethyl)amino)adamantan-1-yl)oxy)ethyl (2-(4-(2-(hexyl((2S,3R,4R,5R)-2,3,4,5,6-pentahydroxyhexyl)amino)ethyl)phenoxy)ethyl)carbamate] | 23
CCCCCCCOC(=O)NC12CC3CC(CC(NCC(=O)N4CCC[C@H]4C#N)(C3)C1)C2 [Compound 1, Heptyl(3-((2-((S)-2-cyanopyrrolidin-1-yl)-2-oxoethyl)amino)adamantan-1-yl)carbamate] | 31
CCCCCCCSC12CC3C[C@@H](CC(NCC(=O)N4CCC[C@H]4C#N)(C3)C1)C2 [Compound 2, (2S)-1-((3-(heptylthio)adamantan-1-yl)glycyl)pyrrolidine-2-carbonitrile] | 26
CCCCCCCC(=O)OCOC12CC3CC(CC(NCC(=O)N4CCC[C@H]4C#N)(C3)C1)C2 [Compound 7, ((3-((2-((S)-2-cyanopyrrolidin-1-yl)-2-oxoethyl)amino)adamantan-1-yl)oxy)methyl Octanoate] | 32
CCCCCCN(Cc1cn(CCOCCOCCOC23CC4CC(CC(NCC(=O)N5CCC[C@H]5C#N)(C4)C2)C3)nn1)C[C@H](O)[C@@H](O)[C@H](O)[C@H](O)CO [Compound 8, (2S)-1-(((1S,3R,5S)-3-(2-(2-(2-(4-((hexyl((2S,3R,4R,5R)-2,3,4,5,6-pentahydroxyhexyl)amino)methyl)-1H-1,2,3-triazol-1-yl)ethoxy)ethoxy)ethoxy)adamantan-1-yl)glycyl)pyrrolidine-2-carbonitrile] | 14.2
N#C[C@@H]1CCCN1C(=O)CN[C@@]12CC3C[C@@H](C1)C[C@](OCCOCCn1cc(CN(C[C@H](O)[C@@H](O)[C@H](O)[C@H](O)CO)C[C@H](O)[C@@H](O)[C@H](O)[C@H](O)CO)nn1)(C3)C2 [Compound 9, (2S)-1-(((1S,3R,5S)-3-(2-(2-(4-((bis((2S,3R,4R,5R)-2,3,4,5,6-pentahydroxyhexyl)amino)methyl)-1H-1,2,3-triazol-1-yl)ethoxy)ethoxy)adamantan-1-yl)glycyl)pyrrolidine-2-carbonitrile] | 10.8
N#C[C@@H]1CCCN1C(=O)CN[C@@]12CC3C[C@@H](C1)C[C@](OCCOCCN(C[C@H](O)[C@@H](O)[C@H](O)[C@H](O)CO)C[C@H](O)[C@@H](O)[C@H](O)[C@H](O)CO)(C3)C2 [Compound 10, (2S)-1-(((1S,3R,5S)-3-(2-(2-(bis((2S,3R,4R,5R)-2,3,4,5,6-pentahydroxyhexyl)amino)ethoxy)ethoxy)adamantan-1-yl)glycyl)pyrrolidine-2-carbonitrile] | 20.8
CCN(Cc1ccc(CNC(=O)OCCOCCO[C@@]23CC4C[C@@H](C[C@@](NCC(=O)N5CCC[C@H]5C#N)(C4)C2)C3)cc1)C[C@H](O)[C@@H](O)[C@H](O)[C@H](O)CO [Compound 12, 2-(2-(((1R,3S,5S)-3-((2-((S)-2-cyanopyrrolidin-1-yl)-2-oxoethyl)amino)adamantan-1-yl)oxy)ethoxy)ethyl (4-((ethyl((2S,3R,4R,5R)-2,3,4,5,6-pentahydroxyhexyl)amino)methyl)benzyl)carbamate] | 7.9
N#C[C@@H]1CCCN1C(=O)CN[C@@]12CC3C[C@@H](C1)C[C@](OCCOCCn1cc(CNC[C@H](O)[C@@H](O)[C@H](O)[C@H](O)CO)nn1)(C3)C2 [Compound 14, (2S)-1-(((1S,3R,5S)-3-(2-(2-(4-((((2S,3R,4R,5R)-2,3,4,5,6-pentahydroxyhexyl)amino)methyl)-1H-1,2,3-triazol-1-yl)ethoxy)ethoxy)adamantan-1-yl)glycyl)pyrrolidine-2-carbonitrile] | 8.2
CCCCCCN(Cc1cn(CCOCCOC23CC4CC(CC(NCC(=O)N5CCC[C@H]5C#N)(C4)C2)C3)nn1)C[C@H](O)[C@@H](O)[C@H](O)[C@H](O)CO [Compound 15] | 17.4
N#C[C@@H]1C[C@@H]2C[C@@H]2N1C(=O)[C@@H](N)[C@]12CC3C[C@H](C[C@](OCCO)(C3)C1)C2 [Compound 16, (1S,3S,5S)-2-((2S)-2-amino-2-((1S,3R,5S)-3-(2-hydroxyethoxy)adamantan-1-yl)acetyl)-2-azabicyclo[3.1.0]hexane-3-carbonitrile] | 7.9
N#C[C@@H]1C[C@@H]2C[C@@H]2N1C(=O)[C@@H](N)C12CC3C[C@H](CC(OCCOC(=O)CNc4ccc(CN(CCO)CCO)cc4)(C3)C1)C2 [Compound 18] | 12
CCCCCCN(Cc1cn(CCOCCOC23CC4C[C@H](C2)CC([C@H](N)C(=O)N2[C@H](C#N)C[C@@H]5C[C@@H]52)(C4)C3)nn1)C[C@H](O)[C@@H](O)[C@H](O)[C@H](O)CO [Compound 20] | 47.8
CCCCCCN(Cc1cn(CCOCCOCCOC23CC4CC(C2)CC([C@H](N)C(=O)N2[C@H](C#N)C[C@@H]5C[C@@H]52)(C4)C3)nn1)C[C@H](O)[C@@H](O)[C@H](O)[C@H](O)CO [Compound 21] | 7.7

Next, values leading:

IC50 [nM] | SMILES
6.6 | N#C[C@@H]1C[C@@H]2C[C@@H]2N1C(=O)[C@@H](N)[C@]12CC3CC(C[C@](OCCOC(=O)NCc4ccc(CN(C[C@@H](O)[C@H](O)[C@@H](O)[C@@H](O)CO)C[C@@H](O)[C@H](O)[C@@H](O)[C@@H](O)CO)cc4)(C3)C1)C2 (stereo in doubt) [Compound 22, 2-(((1R,3S,5S)-3-((S)-1-amino-2-((1S,3S,5S)-3-cyano-2-azabicyclo[3.1.0]hexan-2-yl)-2-oxoethyl)adamantan-1-yl)oxy)ethyl (4-((bis((2S,3R,4R,5R)-2,3,4,5,6-pentahydroxyhexyl)amino)methyl)benzyl)carbamate trifluoracetate salt]
238 | CCCCCCCC(=O)OC12CC3C[C@@H](CC(NCC(=O)N4CCC[C@H]4C#N)(C3)C1)C2 (stereo in doubt) [Compound 24]
4.2 | CCN(Cc1ccc(CNC(=O)OCCO[C@]23CC4C[C@H](C2)C[C@@]([C@H](N)C(=O)N2[C@H](C#N)C[C@@H]5C[C@@H]52)(C4)C3)cc1)C[C@H](O)[C@@H](O)[C@H](O)[C@H](O)CO [Compound 23, 2-(((1R,3S,5S)-3-((S)-1-amino-2-((1S,3S,5S)-3-cyano-2-azabicyclo[3.1.0]hexan-2-yl)-2-oxoethyl)adamantan-1-yl)oxy)ethyl (4-((ethyl((2S,3R,4R,5R)-2,3,4,5,6-pentahydroxyhexyl)amino)methyl)benzyl)carbamate Formate]
5.3 | CC#CCn1c(N2CCC[C@@H](N)C2)nc2c1c(=O)n(Cc1ccccc1B(O)O)c(=O)n2C [Compound 27, (R)-(2-((8-(3-aminopiperidin-1-yl)-7-(but-2-yn-1-yl)-3-methyl-2,6-dioxo-2,3,6,7-tetrahydro-1H-purin-1-yl)methyl)phenyl)boronic Acid]
10.5 | CC#CCn1c(N2CCC[C@@H](N)C2)nc2c1c(=O)n(Cc1ccc(C(=O)O)cc1)c(=O)n2C [Compound 28]
7.1 | CC#CCn1c(N2CCC[C@@H](N)C2)nc2c1c(=O)n(Cc1nc(F)ccc1C(=O)O)c(=O)n2C [Compound 29]
> 1000 | CC#CCn1c(N2CCC[C@@H](N)C2)nc2c1c(=O)n(Cc1nc(F)ccc1C(=O)OCCCCCC)c(=O)n2C [Compound 30, hexyl (R)-2-((8-(3-aminopiperidin-1-yl)-7-(but-2-yn-1-yl)-3-methyl-2,6-dioxo-2,3,6,7-tetrahydro-1H-purin-1-yl)methyl)-6-fluoronicotinate]
11.4 | CC#CCn1c(N2CCC[C@@H](N)C2)nc2c1c(=O)n(Cc1nc(NC)ccc1C(=O)O)c(=O)n2C [Compound 31]
> 1000 | CC#CCn1c(N2CCC[C@@H](N)C2)nc2c1c(=O)n(Cc1nc(NC)ccc1C(=O)OCCCCCC)c(=O)n2C [Compound 32, hexyl (R)-2-((8-(3-aminopiperidin-1-yl)-7-(but-2-yn-1-yl)-3-methyl-2,6-dioxo-2,3,6,7-tetrahydro-1H-purin-1-yl)methyl)-6-(methylamino)nicotinate]
11.4 | CC#CCn1c(N2CCC[C@@H](N)C2)nc2c1c(=O)n(Cc1nc(NCCCC)ccc1C(=O)O)c(=O)n2C [Compound 33]
